Data set [1] is described as follows: Determination of aqueous (kinetic) solubility. To be noted: aqueous buffer, kinetic from dmso stock, buffer pH 7.4. It is filed as physicochemical. The method, then:
The mixture was vortexed for 1 hour and equilibrated overnight at room temperature. The mixture was filtered through a saturated filter and the filtrate was analyzed by LC/MS/MS.
For the purpose of Table 5, solubility of each compound is expressed as follows: […]

The next data set deals with T1, P2X7 receptor (Homo sapiens, UniProt Q99572).
T1 construct: host or cells: THP-1 cells differentiated with LPS and IFN-γ
T1 sequence (Q99572 1-595): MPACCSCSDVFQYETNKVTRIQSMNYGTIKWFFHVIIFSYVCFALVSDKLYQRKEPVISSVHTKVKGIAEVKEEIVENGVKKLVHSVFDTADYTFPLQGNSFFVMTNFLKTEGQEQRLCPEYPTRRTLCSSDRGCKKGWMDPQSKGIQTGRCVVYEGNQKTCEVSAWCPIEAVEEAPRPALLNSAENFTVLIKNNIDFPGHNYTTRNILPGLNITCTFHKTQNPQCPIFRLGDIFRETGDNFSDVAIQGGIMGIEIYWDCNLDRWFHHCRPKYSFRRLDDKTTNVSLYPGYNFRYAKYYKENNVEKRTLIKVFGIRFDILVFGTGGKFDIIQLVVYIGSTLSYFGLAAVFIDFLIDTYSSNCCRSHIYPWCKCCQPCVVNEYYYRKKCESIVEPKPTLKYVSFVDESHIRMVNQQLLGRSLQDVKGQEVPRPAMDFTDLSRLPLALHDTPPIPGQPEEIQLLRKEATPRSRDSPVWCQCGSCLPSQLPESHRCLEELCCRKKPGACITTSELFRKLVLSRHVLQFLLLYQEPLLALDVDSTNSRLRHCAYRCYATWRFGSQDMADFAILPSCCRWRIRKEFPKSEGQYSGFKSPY
The experiment in a line: IL-1β release assay in differentiated THP-1 cells stimulated with BzATP (Example 9). In kind it is cell-based. The note with it: for IC50: THP-1 cells, IL-1β by ELISA. The essentials: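 THP-1 cells differentiated 16 h with 100 ng/mL LPS and 100 ng/mL IFN-γ, primed 2 h with fresh LPS, pretreated 30 min with compound, then stimulated 45 min with 250 uM BzATP (final). Supernatant IL-1β measured by ELISA; background-adjusted percent inhibition fitted to a four-parameter logistic for IC50.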
On the technique in general: In an ELISA, binding on a coated surface is turned into a signal by an enzyme label.

Data set [2] in a line: Pharmacokinetic evaluation following intravenous and oral administration in rats (oral bioavailability). It is filed as in vivo, rat. The note with it: male Sprague-Dawley rats, PO 1 to 5 mg/kg vs IV 1 mg/kg, AUCinf dose-normalized. The method, then:
Male Sprague-Dawley rats are acclimatized for at least 24 hours prior to experiment initiation. During acclimation period, all animals receive food and water ad libitum. However, food but not water is removed from the animal's cages at least 12 hours before initiation of the experiment. During the first 3 hours of experimentation, the animals receive only water ad libitum. At least three animals each are tested for intravenous and oral dosage. For intravenous formulation, compounds were dissolved (0.25 to 1 mg/mL) in a mixture of 3% dimethyl sulfoxide, 40% PEG 400 and the rest percentage of 40% Captisol in water (w/v). The animals are weighed before dosing. The determined body weight is used to calculate the dose volume for each animal.
Dose volume (mL/kg)=1 mg/kg/formulation concentration (mg/mL)
In instances where the formulation concentrations were less than 0.5 mg/mL, the dosing volume is about 2 mL/kg.
PO rats are typically dosed through oral gavage following the same dose volume formula as IV to achieve a dose level of 1 to 5 mg/kg. […] About 250 uL of blood is obtained at each time point from the animal. Equal volumes of 0.9% normal saline are replaced to prevent dehydration. The whole blood samples are maintained on ice until centrifugation. Blood samples are then centrifuged at 14,000 rpm for 10 minutes at 4° C. and the upper plasma layer transferred into a clean vial and stored at −80° C. The resulting plasma samples are then analyzed by liquid chromatography-tandem mass spectrometry. Following the measurement of plasma samples and dosing solutions, plasma concentration-time curve is plotted. Plasma exposure is calculated as the area under the concentration-time curve extrapolated to time infinite (AUinf). The AUCinf is averaged and the oral bioavailability (% F) for individual animal is calculated as:
AUCinf (PO)/AUCinf (IV), normalized to their respective dose levels. The % F is reported as the mean % F of all animals dosed orally with the compound of the invention at the specified level (see Table 4 below).
For the purpose of Table 4, oral bioavailability of each compound is expressed as follows: […]

Data set [3] in a line: Half-life in human liver microsomes (HLM). The note with it: pH 7.4. (Liver microsomes are vesicles of endoplasmic reticulum, rich in cytochrome P450 enzymes.)
Procedure: (§1) Test compounds (1 μM) are incubated with 3.3 mM MgCl2 and 0.78 mg/mL HLM (HL101) in 100 mM potassium phosphate buffer (pH 7.4) at 37° C. on the 96-deep well plate. The reaction mixture is split into two groups, a non-P450 and a P450 group. NADPH is only added to the reaction mixture of the P450 group. An aliquot of samples of P450 group is collected at 0, 10, 30, and 60 min time point, where 0 min time point indicated the time when NADPH is added into the reaction mixture of P450 group. […] Collected aliquots are extracted with acetonitrile solution containing an internal standard. […] The compound concentration in supernatant is measured by LC/MS/MS system.
(§2) The half-life value is obtained by plotting the natural logarithm of the peak area ratio of compounds/internal standard versus time. The slope of the line of best fit through the points yields the rate of metabolism (k). This is converted to a half-life value using following equations:
Another data set in a line: in vitro. To be noted: human, microsomes, pH 7.4.
Setting [4] is: 0.3 μM compound, differentiated THP-1 cells, BzATP 250 uM, "+" symbols, read-out: IL-1β % Inhib. @ 0.3 or 0.1 uM.
Where [5] appears, read: THP-1, read-out: IL-1β % Inhib. @ 0.3 or 0.1 uM.

A word on the solubility: it is how much of the substance goes into solution per volume. Read a low solubility as a poorly soluble substance. In general, half-life refers to how long it takes for the measured level to halve. Higher therefore signals slow decline. Usually IC50 stands for the concentration at which inhibition is half-maximal.

In brackets after ≈: the same amount, converted by molar mass. Where two headings read alike, the source gives them in different places. Bounds are passed on as bounds.

Procedure for in vitro: as §1, §2

With `C[C@H](CO)n1ccc2c(NC(=O)Cc3ccc(Cl)c(F)c3)cccc2c1=O` [Compound 330, 2-(4-Chloro-3-fluorophenyl)-N-[2-((R)-2-hydroxy-1-methyl-ethyl)-1-oxo-1,2-dihydro-isoquinolin-5-yl]-acetamide], the solubility in data set [1] is greater than 75 µM. The inhibition at 0.3 µM on P2X7 receptor (setting [4]) was greater than 76%. Also, the “Oral Bioavailability F (%)” value in data set [2] is listed as “++++ (>75% F)”. Further, the half-life at 1 μM in data set [3] is 1.41 h.

`O=C(Cc1ccc(C(F)(F)F)c(F)c1)Nc1c(Cl)ccc2c(=O)n(CCO)ccc12` [Compound 383] came in with a solubility in data set [1] of less than 25 µM. Besides, the inhibition at 0.3 µM at P2X7 receptor (setting [4]) was greater than 76%. In addition, in data set [2], the “Oral Bioavailability F (%)” value is “++++ (>75% F)”. This molecule showed a half-life in “in vitro” of 3.65 h.

In turn, `Cc1ccc2c(=O)n([C@H](C)CO)ccc2c1NC(=O)Cc1ccc(C(F)(F)F)c(F)c1` [Compound 393, N-[6-Methyl-2-((R)-2-hydroxy-1-methyl-ethyl)-1-oxo-1,2-dihydro-isoquinolin-5-yl]-2-(3-fluoro-4-trifluoromethyl-phenyl)-acetamide] showed a solubility in data set [1] greater than 75 µM. For the same molecule, on P2X7 receptor (setting [5]), the inhibition at 0.3 µM is greater than 76%. The same molecule came in with an IC50 at P2X7 receptor (BzATP 250 uM) of 5.38 nM. The “Oral Bioavailability F (%)” value in data set [2] is recorded as “+++ (51-75% F)”. The molecule also gave a half-life in the data set “in vitro” of 1.45 h.

On to `C[C@@H](C(N)=O)n1ccc2c(NC(=O)Cc3ccc(Cl)c(C(F)(F)F)c3)cccc2c1=O` [Compound 353], for which the solubility in data set [1] is less than 25 µM. Moreover, at P2X7 receptor (setting [4]), the inhibition at 0.3 µM was greater than 76%. Moreover, the “Oral Bioavailability F (%)” value in data set [2] is listed as “+ (0-25% F)”. This molecule also had a half-life at 1 μM in data set [3] of 1.01 h.

`C[C@H](C(=O)Nc1cccc2c(=O)n([C@@H](C)C(N)=O)ccc12)c1ccc(Cl)cc1` [Compound 265]: in data set [1], the solubility was in the range of 26 to 50 µM (≈ 10.3 to 19.9 µg/mL). Further, at P2X7 receptor (setting [4]), the inhibition at 0.3 µM was greater than 76%. In addition, the “Oral Bioavailability F (%)” value in data set [2] is “++ (26-50% F)”. In data set [3], the half-life at 1 μM is 0.97 h.

As for `O=C(Cc1ccc(F)c(C(F)(F)F)c1)Nc1c(Cl)ccc2c(=O)n(CCO)ccc12` [Compound 386, N-[6-Chloro-2-(2-hydroxy-ethyl)-1-oxo-1,2-dihydro-isoquinolin-5-yl]-2-(4-fluoro-3-trifluoromethyl-phenyl)-acetamide], the solubility in data set [1] was less than 25 µM. The inhibition at 0.3 µM at P2X7 receptor (setting [5]) is greater than 76%. Also, in data set [2], the “Oral Bioavailability F (%)” value is given as “+ (0-25% F)”. For the same molecule, the half-life at 1 μM in data set [3] is 1.08 h.

For the molecule `Cc1ccc2c(=O)n(CCO)ccc2c1NC(=O)Cc1ccc(C(F)(F)F)c(F)c1` [Compound 400], the solubility in data set [1] is greater than 75 µM. Moreover, the inhibition at 0.3 µM at P2X7 receptor (differentiated THP-1 cells, BzATP 250 uM, "+" symbols = compound at 0.3 μM, read-out: IL-1β % Inhib. @ 0.3 or 0.1 uM) is greater than 76%. The “Oral Bioavailability F (%)” value in data set [2] was “++ (26-50% F)”. The half-life at 1 μM in data set [3] is 3.73 h.

As for `Cc1ccc2c(=O)n([C@H](C)CO)ccc2c1NC(=O)Cc1ccc(F)c(C(F)(F)F)c1` [Compound 394], the solubility in data set [1] is greater than 75 µM. In addition, the inhibition at 0.3 µM on P2X7 receptor (setting [4]) was greater than 76%. At P2X7 receptor (BzATP 250 uM), this molecule came in with an IC50 of 5.54 nM. The “Oral Bioavailability F (%)” value in data set [2] was “++ (26-50% F)”. The same molecule had a half-life at 1 μM in data set [3] of 0.7 h.

(Values after patent US20110092476A1, “Bicycloheteroaryl compounds as P2X7 modulators and uses thereof” (Renovis, Inc., priority 2006, published 2011).)
